Common to all, as to format: functional
What all share (conditions): time 20-24 hrs

The test system of assay [1] is Staphylococcus aureus. Nature of the assay: Antimicrobial activity against Staphylococcus aureus ATCC 25923 assessed as inhibition of visible growth measured after 20 to 24 hrs incubation by CLSI method.
Assay [2] concerns Staphylococcus aureus. Nature of the assay: Antimicrobial activity against antibiotic-resistant Staphylococcus aureus ATCC BAA-2312 assessed as inhibition of visible growth measured after 20 to 24 hrs incubation by CLSI method.
In assay [3] the test system is Staphylococcus aureus. The experiment in a line: Antimicrobial activity against antibiotic-resistant Staphylococcus aureus ATCC 33591 assessed as inhibition of visible growth measured after 20 to 24 hrs incubation by CLSI method.
In assay [4] the test system is Staphylococcus aureus. Nature of the assay: Antimicrobial activity against antibiotic-resistant Staphylococcus aureus ATCC 33592 assessed as inhibition of visible growth measured after 20 to 24 hrs incubation by CLSI method.
In assay [5] the test system is Staphylococcus aureus. Nature of the assay: Antimicrobial activity against antibiotic-resistant Staphylococcus aureus ATCC 700699 assessed as inhibition of visible growth measured after 20 to 24 hrs incubation by CLSI method.
Assay [6] concerns Staphylococcus epidermidis. Nature of the assay: Antimicrobial activity against antibiotic-resistant Staphylococcus epidermidis ATCC 700296 assessed as inhibition of visible growth measured after 20 to 24 hrs incubation by CLSI method.
Assay [7] has as its system Enterococcus faecalis. Nature of the assay: Antimicrobial activity against antibiotic-susceptible Enterococcus faecalis ATCC 29212 assessed as inhibition of visible growth measured after 20 to 24 hrs incubation by CLSI method.
For assay [8], the system named is Enterococcus faecalis. The experiment in a line: Antimicrobial activity against antibiotic-resistant Enterococcus faecalis ATCC 51299 assessed as inhibition of visible growth measured after 20 to 24 hrs incubation by CLSI method.
Assay [9] relates to Enterococcus faecium. Nature of the assay: Antimicrobial activity against antibiotic-resistant Enterococcus faecium ATCC 700221 assessed as inhibition of visible growth measured after 20 to 24 hrs incubation by CLSI method.
Assay [10] deals with Bacillus subtilis. Nature of the assay: Antimicrobial activity against antibiotic-resistant Bacillus subtilis ATCC 6623 assessed as inhibition of visible growth measured after 20 to 24 hrs incubation by CLSI method.

Each structure is given as a SMILES string. Converted amounts (≈) assume the structure as drawn. Bounds are passed on as bounds.

The MIC is the smallest concentration in the dilution series that meets the test's criterion for growth inhibition.

Take `O=C(O)c1ccc(-n2cc(CNc3ccc(Cl)c(Cl)c3)c(-c3cccc(F)c3)n2)cc1`: the MIC in [1] is 2 µg/mL (≈ 4.38 µM); in assay [2], 2 µg/mL (≈ 4.38 µM); in assay [3], 1 µg/mL (≈ 2.19 µM); in assay [4], 4 µg/mL (≈ 8.77 µM); in [5], 2 µg/mL (≈ 4.38 µM); in assay [6] it was 4 µg/mL (≈ 8.77 µM). Further, the MIC is 8 µg/mL (≈ 17.5 µM) in assay [7], 8 µg/mL (≈ 17.5 µM) in assay [8], 4 µg/mL (≈ 8.77 µM) in assay [9] and 1 µg/mL (≈ 2.19 µM) in assay [10].

Turning to `O=C(O)c1ccc(-n2cc(CNc3ccc(F)cc3)c(-c3ccc(F)c(F)c3)n2)cc1`, the minimum inhibitory concentration (MIC) in assay [1], in assay [2], in assay [3], in [4], in assay [5] and in [6] was above 32 µg/mL each time. The minimal inhibitory concentration (MIC) in assay [7], in [8], in assay [9] and in assay [10] was above 32 µg/mL in each case.

Consider `COc1ccc(NCc2cn(-c3ccc(C(=O)O)cc3)nc2-c2ccc(F)cc2)cc1C(F)(F)F`, for which the MIC came to 16 µg/mL (≈ 33 µM) in assay [1]; 16 µg/mL (≈ 33 µM) in assay [2]; 8 µg/mL (≈ 16.5 µM) in assay [3]; 16 µg/mL (≈ 33 µM) in assay [4]; 8 µg/mL (≈ 16.5 µM) in assay [5]; 16 µg/mL (≈ 33 µM) in assay [6]. Further, the minimum inhibitory concentration (MIC) stood at 32 µg/mL (≈ 65.9 µM) in assay [7], 32 µg/mL (≈ 65.9 µM) in assay [8], 32 µg/mL (≈ 65.9 µM) in assay [9] and 8 µg/mL (≈ 16.5 µM) in [10].

As for `O=C(O)c1ccc(-n2cc(CNc3cc(Cl)cc(Cl)c3)c(-c3ccc(F)cc3)n2)cc1`, the MIC is 1 µg/mL (≈ 2.19 µM) in assay [1]; 1 µg/mL (≈ 2.19 µM) in [2]; 1 µg/mL (≈ 2.19 µM) in assay [3]; 1 µg/mL (≈ 2.19 µM) in assay [4]; 2 µg/mL (≈ 4.38 µM) in assay [5]; 2 µg/mL (≈ 4.38 µM) in assay [6]. Further, the minimal inhibitory concentration (MIC) in assay [7] is 4 µg/mL (≈ 8.77 µM); in assay [8], 4 µg/mL (≈ 8.77 µM); in assay [9], 4 µg/mL (≈ 8.77 µM); in assay [10], 0.5 µg/mL (≈ 1.1 µM).

Take `O=C(O)c1ccc(-n2cc(CNc3ccc(F)c(F)c3F)c(-c3ccc(F)c(F)c3)n2)cc1`: the MIC is above 32 µg/mL in [1]; 8 µg/mL (≈ 17.4 µM) in assay [2]; 2 µg/mL (≈ 4.35 µM) in assay [3]; above 32 µg/mL in assay [4]; above 32 µg/mL in [5]; above 32 µg/mL in assay [6]. In addition, the minimum inhibitory concentration (MIC) was above 32 µg/mL in assay [7], above 32 µg/mL in assay [8], above 32 µg/mL in assay [9] and 2 µg/mL (≈ 4.35 µM) in [10].

Regarding `Cc1ccc(NCc2cn(-c3ccc(C(=O)O)cc3)nc2-c2ccc(F)cc2)cc1Cl`, the MIC in assay [1] was 32 µg/mL (≈ 73.4 µM); in assay [2] it was 16 µg/mL (≈ 36.7 µM); in assay [3], 16 µg/mL (≈ 36.7 µM); in [4], 16 µg/mL (≈ 36.7 µM); in [5] it was 4 µg/mL (≈ 9.18 µM); in [6], 32 µg/mL (≈ 73.4 µM). For the same compound, the MIC is above 32 µg/mL in assay [7], above 32 µg/mL in assay [8], 16 µg/mL (≈ 36.7 µM) in assay [9] and 8 µg/mL (≈ 18.4 µM) in [10].

For `O=C(O)c1ccc(-n2cc(CNc3cccc(F)c3)c(-c3ccc(F)cc3)n2)cc1`, the minimal inhibitory concentration (MIC) in assay [1] stood at 16 µg/mL (≈ 39.5 µM); in [2], 32 µg/mL (≈ 78.9 µM); in assay [3], 16 µg/mL (≈ 39.5 µM); in assay [4], 16 µg/mL (≈ 39.5 µM); in assay [5], 16 µg/mL (≈ 39.5 µM); in assay [6], 32 µg/mL (≈ 78.9 µM). The MIC in assay [7] is above 32 µg/mL; in assay [8], above 32 µg/mL; in assay [9] it was above 32 µg/mL; in assay [10], 8 µg/mL (≈ 19.7 µM).

Regarding `O=C(O)c1ccc(-n2cc(CNc3cccc(Br)c3)c(-c3cccc(F)c3)n2)cc1`, the minimum inhibitory concentration (MIC) in assay [1] came out at 4 µg/mL (≈ 8.58 µM); in assay [2], 4 µg/mL (≈ 8.58 µM); in assay [3], 2 µg/mL (≈ 4.29 µM); in [4], 8 µg/mL (≈ 17.2 µM); in assay [5] it was 8 µg/mL (≈ 17.2 µM); in assay [6] it was 16 µg/mL (≈ 34.3 µM). The MIC in [7] came to 16 µg/mL (≈ 34.3 µM); in assay [8], 16 µg/mL (≈ 34.3 µM); in assay [9], 16 µg/mL (≈ 34.3 µM); in assay [10] it was 2 µg/mL (≈ 4.29 µM).

Take `CC(C)(C)c1ccc(NCc2cn(-c3ccc(C(=O)O)cc3)nc2-c2ccc(F)cc2)cc1`: the MIC in [1] came to 4 µg/mL (≈ 9.02 µM); in assay [2] it was 2 µg/mL (≈ 4.51 µM); in assay [3] it was 2 µg/mL (≈ 4.51 µM); in assay [4] it was 4 µg/mL (≈ 9.02 µM); in assay [5] it was 4 µg/mL (≈ 9.02 µM); in [6], 8 µg/mL (≈ 18 µM). Further, the MIC in assay [7] turned out to be 8 µg/mL (≈ 18 µM); in assay [8], 8 µg/mL (≈ 18 µM); in assay [9], 4 µg/mL (≈ 9.02 µM); in assay [10] it was 2 µg/mL (≈ 4.51 µM).

Consider `O=C(O)c1ccc(-n2cc(CNc3ccc(F)c(F)c3)c(-c3ccc(F)cc3)n2)cc1`, for which the MIC in [1] is above 32 µg/mL; in assay [2], above 32 µg/mL; in [3], above 32 µg/mL; in assay [4], above 32 µg/mL; in [5], 16 µg/mL (≈ 37.8 µM); in [6], above 32 µg/mL. In addition, the MIC is above 32 µg/mL in [7], above 32 µg/mL in assay [8], above 32 µg/mL in assay [9] and 16 µg/mL (≈ 37.8 µM) in [10].

The values above are taken from ChEMBL document CHEMBL5365500, “Development and Antibacterial Properties of 4-[4-(Anilinomethyl)-3-phenylpyrazol-1-yl]benzoic Acid Derivatives as Fatty Acid Biosynthesis Inhibitors” (J Med Chem, 2023).
